Consider 1 compound from paper PMC10508264, “Exploring the antioxidant, antimicrobial, cytotoxic and biothermodynamic properties of novel morpholine derivative bioactive Mn(II), Co(II) and Ni(II) complexes – combined experimental and theoretical measurements towards DNA/BSA/SARS-CoV-2 3CL^Pro” (RSC Medicinal Chemistry, 2023).

A word on the IC50: it is the point on the concentration scale where inhibition reaches its midpoint.

Holding throughout (assay type): cell-based, human
The subject of one assay is A549. The experiment in a line: MTT cell viability assay, A549. The conditions noted are these: A549, 72 h of exposure. (Tetrazolium dyes change colour on reduction, which living cells bring about.)
A further assay deals with HepG2. Briefly: MTT cell viability assay, HepG2. The conditions noted are these: HepG2, 72 h of exposure.
Another assay relates to MCF-7. The experiment in a line: MTT cell viability assay, MCF-7. Particulars: MCF-7, 72 h of exposure.
A further assay has as its system NHDF. The experiment in a line: MTT cell viability assay, NHDF. Particulars: NHDF normal cells, 72 h of exposure. As to the method: Cellular viability or metabolic properties can be measured using the MTT assay, which is a powerful and consistent method for cytotoxic properties. […] As per the colorimetric approach, the IC50 values of all compounds were evaluated via the percentage of cell viability or inhibition of growth.[128] […] However, complexes (2) and (3) were exposed to similar cytotoxic potential as the others,[129] which induces apoptosis due to their ability to produce ROS more efficiently than the free ligand. […] The cytotoxic effectiveness is dependent upon the DNA binding modalities, the structure–activity relationship, the drug concentrations, and the incubation period exposure.[130] […] Coordination between the ligands and metal ions results in charge equilibration, which diminishes the polarity of the metal ions and also causes the ability of the test complexes to pass via the cell membrane lipid layer in accordance with Tweedy's chelation theory. Thus, it inhibits the synthesis of cell-wall/protein/nucleic acid. Additionally, the results of DNA binding tests using these complexes, including gel electrophoresis, UV-vis spectral titration, hydrodynamics, emission, and CV findings, were in good agreement with the findings of cytotoxicity.[131] Expressions eqn (44) and (45) were applied to measure the percentage of growth inhibition and cell viability (Table 10). In this case, complexes (2) and (3) have been proven to have greater biological efficiency than the others. Cytotoxicity depends on not only the hydrophilicity or lipophilicity and permeability, which only assist the crossing of the cell membrane but are not responsible for cell death, but also on several other factors, including the Lewis acid character, overall stability, solubility, conductivity, compatibility, length of the metal–ligand bond, overall charge, electron density, reduction potential, dipole moment, intermolecular hydrogen bonds, proton transfer equilibrium, and coordination environment. These significant elements might also contribute to the increased biological activity. Moreover, cobalt is also generally not considered to be a very toxic element, and its coordination complexes have fascinating redox and magnetic characteristics that fit them for a remarkable range of biological and medical uses. […] Moreover, it is possible to intelligently adjust these factors to successfully target a desired pathway or biomolecule. Designing such well-controlled and selective cobalt-based therapeutics may benefit from a mechanistic understanding of the varied bioactivities of cobalt complexes. Thus, knowing the mechanism of action can direct the advancement of prospective cobalt treatments to clinical trial.[133]
2.5. Assessment of in-vitro antimicrobial properties
bacteria and 7 days for fungal strains.

Molecules are shown by their SMILES.

With `N.N.[Cl][Pt][Cl]` [Cisplatin, cisplatin, reference compound], the IC50 is 31.9 ± 1.6 µM in the assay with A549, 22.9 ± 1.1 µM with HepG2, 20.2 ± 1 µM in the assay on MCF-7 and 26.9 ± 1.3 µM in the assay with NHDF.
